Test results taken from US20200309872A1, “APPARATUS AND METHOD OF AIR-SUSPENDED BIOFABRICATION OF TISSUE-ENGINEERED ORGAN CONSTRUCTS AND CONGLOMERATES OF SPHEROIDS, CELLS AND OTHER BIOLOGICAL OBJECTS BY USING MAGNETIC FIELD” (priority 2019, published 2020).

Legend:
Type in all cases: cell-based
[1] = tested on: chondrospheres from primary sheep chondrocytes; experiment: Spheroid fusion assay (spheroid doublets)
Experimental: Spheroid fusion assay was performed using Corning spheroid microplates (Corning, cat.# 4520). Pairs of 3-day-old tissue spheroids with a starting cell number of 8000 cells were placed in contact in 0, 50 and 250 mM Gd3+ concentrations and incubated for 7 days. Bright-field images of spheroid doublets were obtained at points 0 h, 4 h, 6 h, 1 day, 2 days, 3 days, 4 days and 7 days using Nikon Eclipse Ti-S microscope. Contact length, intersphere angle and doublet length were measured using Image J 1.48v software (NIH, Bethesda, Md., USA) and plotted as a function of time using GraphPad Prism software (GraphPad Software, Inc., La Jolla, Calif.). Doublet length (FIG. 5) was normalized to initial doublet length. Measurements for each parameter were reported as mean ±S.E.M.
To investigate the fusion of tissue spheroids at different Gd3+ concentrations, the pairs of spheroids were placed in contact with each other in the same well of low adhesion microplate and allowed to fuse for 7 days. The kinetics of tissue spheroid fusion was monitored and analyzed daily at bright-field under inverted microscope. Contact length, intersphere angle and doublet length were measured. […] Spheroid doublet in 0 mM Gd3+ solution shortened faster than spheroid doublet in 50 mM Gd3+ solution.

[2] = tested on: chondrospheres from primary sheep chondrocytes; experiment: Estimation of spheroid cell density by cell counting on semi-thin sections
Experimental: Spheroid cell density was estimated by analysis of semi-thin sections of tissue spheroids using Image J 1.48v software (NIH, Bethesda, Md., USA).
(§1) The viability of cells within tissue spheroids was analyzed by measuring the luminescent signal generated by luciferin-luciferase interconnection as a function of cytoplasmic ATP concentration. […] The highly statistically significant difference (p<0.0005) in cell density corresponded to 85% in 50 mM Gd3+ solution compared to 100% in 0 mM Gd3+ solution, while the cell density at 250mM Gd3+ concentration was 40% (FIG. 3c).

[3] = tested on: chondrospheres from primary sheep chondrocytes; experiment: Histological analysis on semi-thin sections of tissue spheroids (toluidine blue)
Experimental: Tissue spheroids were fixed with 2.5% glutaraldehyde/PBS and then treated with 1% osmium tetraoxide/PBS. The samples were dehydrated by soaking in a series of solutions of increasing concentrations of ethanol, stained with 1% uranyl acetate/70% ethanol and finally embedded to araldite-epon mixture. Semi-thin sections were prepared on a LKB-III ultratome (Sweden), stained with 1% toluidine blue and then examined using a light microscope (Leica DM 2500, Germany) equipped with a digital camera (Leica DFC 290, Germany).
A histological analysis on semi-thin sections of 3-day-old tissue spheroids was performed in order to estimate possible toxic effects and to determine an optimal nontoxic Gd3+ concentration (FIG. 3a). […] Scale bar—100μm.

[4] = tested on: chondrospheres from primary sheep chondrocytes; experiment: Fusion of 30 chondrospheres into a microtissue construct in non-adhesive microplate
Experimental: To check the possibility of microtissue construct biofabrication at different concentrations of Gd3+, 30 chondrospheres were placed in the same well of non-adhesive microplate and allowed fusion for 48 hours (FIG. 5c). […] Scale bar −500 μm.

[5] = tested on: chondrospheres from primary sheep chondrocytes; experiment: Mechanical testing of tissue spheroids (parallel-plate compression, Microsquisher); conditions: for elastic modulus of spheroids: 24 hours, 0 mM control 2.91±0.15 kPa
Experimental: The mechanical properties of tissue spheroids were measured by a micro-scale parallel-plate compression testing system Microsquisher (CellScale, Canada) with associated SquisherJoy software. Tissue spheroids with a starting cell number of 8000 cells were formed using Corning spheroid microplates. They were cultured 3 days and then placed in 0, 50 and 18 250 mM Gd3+ concentrations for 24 hours prior to mechanical characterization. For mechanical testing spheroids were placed in a PBS-filled bath at 37° C. and compressed to 50% deformation in 20 sec. The microbeams with diameters 152.4 μm (recommended max force […]) and 304.8 μm (recommended max force […]) were employed depending on the stiffness and sensitivity required to measure tissue spheroids from different cell types. The force-displacement data obtained from the compression test were converted to stress-strain curves and the lower portion of the curve (0-20% strain) was used to obtain a linear regression line and estimate the Young's modulus. In each group eight samples of spheroids were measured.
The influence of gadolinium Gd3+ on mechanical properties of tissue spheroids was estimated by tensiometry using parallel plates modification. […] The values of elastic modulus of spheroids in 0 and 50 mM Gd3+ solutions were 2.91±0.15 kPa and 18 2.95±0.1 kPa, correspondingly. […] This observation can be explained by low viability of tissue spheroids in 250 mM Gd3+ solution.
The sharp rise of the curve in the area of high strain values is associated with an increase of the tissue spheroid cross section. […] The stress-strain curve changes practically linearly before this strain; in this section we calculated the Young's modulus.

[6] = tested on: chondrospheres from primary sheep chondrocytes; experiment: Tissue spheroid viability, CellTiter-Glo 3D (cytoplasmic ATP luminescence); conditions: 24 hours of incubation
Experimental: The viability of tissue spheroids was assessed using the CellTiter-Glo 3D kit according to the manufacturer protocol. Briefly, 3-day-old tissue spheroids with a starting cell number of 8000 cells were placed in 0, 50 and 250 mM Gd3+ concentrations for 24 hours. Then CellTiter-Glo 3D kit was added and luminescence was recorded after 30 min incubation using VICTOR X3 Multilabel Plate Reader (Perkin Elmer, USA).
as §1

CNC(=O)CN(CCN(CCN(CC(=O)[O-])CC(=O)NC)CC(=O)[O-])CC(=O)[O-].[Gd+3] [Gd3+, Gadodiamide]
fusion of spheroid pair (contact length, intersphere angle, doublet length) ([1]; 50 mM Gd3+, up to 7 days): contact lengths and intersphere angles increased as a function of time and doublet lengths shortened gradually
cytotoxicity ([1]; 250 mM Gd3+): high cytotoxicity
fusion of spheroid pair ([1]; 250 mM Gd3+, up to 7 days): continued to fuse during first 24 hours and then no further progressive aggregation was observed
intersphere angle ([1]; seventh day of incubation, follows the 0 and 50 mM Gd3+ results, concentration not restated, indicates complete fusion): 179 °
cell density compared to 100% in 0 mM Gd3+ solution ([2]; 50 mM Gd3+ solution): 85%
cell density compared to 100% in 0 mM Gd3+ solution ([2]; 250 mM Gd3+): 40%
cell density (histology, qualitative) ([3]; 50 mM Gd3+ solution): cell density did not change
cytoplasm staining ([3]; 50 mM Gd3+ solution): slightly reduced
toxic effect on chondrospheres morphology ([3]; 250 mM Gd3+, 3-day-old spheroids, toluidine blue staining): severe toxic effect
cell density (histology, qualitative) ([3]; 250 mM Gd3+, cell death and apoptosis, pycnotic nuclei, extracellular debris): cell density dramatically reduced
construct formation from 30 chondrospheres ([4]; 50 mM Gd3+, 2 days of incubation): formation of compact constructs was observed
construct formation from 30 chondrospheres ([4]; 250 mM Gd3+, 48 hours): no constructs were formed
effect on tissue spheroids Young's modulus ([5]; 50 mM Gd3+ in the growth medium): does not affect
elastic modulus of spheroids ([5]; 50 mM Gd3+): 2.95±0.1 kPa
decrease of Young's modulus ([5]; 250 mM Gd3+): ~93%
elastic modulus of spheroids ([5]; 250 mM Gd3+): 0.14±0.05 kPa
viability of tissue spheroids ([6]; 50 mM Gd3+): remained viable
viability of tissue spheroids ([6]; 250 mM Gd3+): significant toxic effect
